Measurements reported in patent US10597388B2, “Pyridazinone herbicides” (FMC CORPORATION, priority 2014, dated 2020).

Assays:
Type in all cases: in vivo
[1] = tested on: ducksalad (Heteranthera limosa); assay: Test B flooded paddy test; details: 250 g ai/ha, Flood; visual rating on scale of 0 to 100 where 0 is no effect and 100 is complete control; 13 to 15 d after treatment
How it was run: (§1)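 Plants grown to the 2-leaf stage. At treatment, pots were flooded to 3 cm above the soil, compound was applied directly to the paddy water, and that depth was held throughout. After 13 to 15 d in the greenhouse, response was rated visually against controls on a 0 (no effect) to 100 (complete control) scale.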

[2] = tested on: barnyardgrass (Echinochloa crus-galli); assay: Test B flooded paddy test; details: 250 g ai/ha, Flood; visual rating on scale of 0 to 100 where 0 is no effect and 100 is complete control; 13 to 15 d after treatment
How it was run: as §1

rice (Oryza sativa) = assay: Test B flooded paddy test; details: 250 g ai/ha, Flood; visual rating on scale of 0 to 100 where 0 is no effect and 100 is complete control; 13 to 15 d after treatment
How it was run: as §1

[3] = tested on: sedge, umbrella (small-flower umbrella sedge, Cyperus difformis); assay: Test B flooded paddy test; details: 250 g ai/ha, Flood; visual rating on scale of 0 to 100 where 0 is no effect and 100 is complete control; 13 to 15 d after treatment
How it was run: as §1

[4] = tested on: galium (catchweed bedstraw, Galium aparine); assay: Test A greenhouse herbicide test, postemergence
How it was run: (§2)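 Visual injury score, 0 (no effect) to 100 (complete control), versus untreated controls roughly 10 d after postemergence spray; plants at one- to two-leaf stage, 2 to 10 cm tall, in loam soil and sand, kept in greenhouse.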

[5] = tested on: blackgrass (Alopecurus myosuroides); assay: Test A greenhouse herbicide test, postemergence
How it was run: as §2

[6] = tested on: pigweed (Amaranthus retroflexus); assay: Test A greenhouse herbicide test, pre- and postemergence
How it was run: (§3)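 Seeds in loam–sand blend received a preemergence directed soil spray; plants at 2–10 cm, one- to two-leaf stage, received postemergence sprays. Compounds in a non-phytotoxic solvent with surfactant. After about 10 d in a greenhouse, injury rated visually versus untreated controls on a 0–100 scale (100 = complete control).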

[7] = tested on: wheat (Triticum aestivum); assay: as above; details: Postemergence
How it was run: as §3

[8] = tested on: ryegrass, Italian (Italian ryegrass, Lolium multiflorum); assay: as above
How it was run: as §3

[9] = tested on: barnyardgrass (Echinochloa crus-galli); assay: as above
How it was run: as §3

[10] = tested on: foxtail, giant (giant foxtail, Setaria faberii); assay: as above
How it was run: as §3

corn (Zea mays) = assay: as above; details: Postemergence
How it was run: as §3

kochia (Kochia scoparia) = assay: as above
How it was run: as §3

[11] = tested on: ragweed (common ragweed, Ambrosia elatior); assay: as above
How it was run: as §3

[12] = 125 g ai/ha, 0 to 100 scale where 0 is no effect and 100 is complete control
[13] = 500 g ai/ha, visual rating after approx. 10 d, 0 to 100 scale (0 no effect, 100 complete control)
[14] = Postemergence, 125 g ai/ha, 0 to 100 scale where 0 is no effect and 100 is complete control
[15] = Postemergence, 500 g ai/ha, visual rating after approx. 10 d, 0 to 100 scale (0 no effect, 100 complete control)
[16] = Preemergence, 125 g ai/ha, 0 to 100 scale where 0 is no effect and 100 is complete control
[17] = Preemergence, 500 g ai/ha, 0 to 100 scale where 0 is no effect and 100 is complete control
[18] = 125 g ai/ha, 0 to 100 scale, 0 no effect, 100 complete control
[19] = Postemergence, 125 g ai/ha, 0 to 100 scale, 0 no effect, 100 complete control
[20] = Preemergence, 125 g ai/ha, visual injury rating, 0 to 100 scale (0 no effect, 100 complete control), approx. 10 d

CC(=O)Oc1c(C)nn(C)c(=O)c1-c1c(C(F)(F)F)ccc2ccccc12 [Compound 148]
Plant response rating, Ducksalad [1]: 0
Plant response rating, Barnyardgrass [2]: 0
Plant response rating, Rice (rice (Oryza sativa)): 0
Plant response rating, Sedge, Umbrella [3]: 0
Plant response rating, Galium [4, 12]: 90
Plant response rating, Galium [4, 13]: 90
Plant response rating, Blackgrass [5, 12]: 60
Plant response rating, Blackgrass [5, 13]: 80
Plant response rating, Pigweed [6, 14]: 90
Plant response rating, Pigweed [6, 15]: 90
Pigweed plant response rating [6, 16]: 100
Plant response rating, Pigweed [6, 17]: 100
Plant response rating, Wheat [7, 12]: 20
Plant response rating, Wheat [7, 13]: 60
Plant response rating, Ryegrass, Italian [8, 14]: 90
Plant response rating, Ryegrass, Italian [8, 15]: 90
Plant response rating, Ryegrass, Italian [8, 17]: 100
Plant response rating, Barnyardgrass [9, 14]: 10
Plant response rating, Barnyardgrass [9, 15]: 30
Barnyardgrass plant response rating [9, 16]: 10
Plant response rating, Barnyardgrass [9, 17]: 60
Plant response rating, Foxtail, Giant [10, 14]: 30
Plant response rating, Foxtail, Giant [10, 15]: 70
Foxtail, Giant plant response rating [10, 16]: 20
Plant response rating, Foxtail, Giant [10, 17]: 50
Plant response rating, Corn (corn (Zea mays); [12]): 0
Plant response rating, Corn (corn (Zea mays); [13]): 0
Plant response rating, Kochia (kochia (Kochia scoparia); [14]): 80
Plant response rating, Kochia (kochia (Kochia scoparia); [15]): 90
Kochia plant response rating (kochia (Kochia scoparia); [16]): 30
Plant response rating, Kochia (kochia (Kochia scoparia); [17]): 90
Plant response rating, Ragweed [11, 14]: 90
Plant response rating, Ragweed [11, 15]: 90
Plant response rating, Ragweed [11, 17]: 80

C#Cc1ccc2cccc(-c3c(O)c(C)nn(C)c3=O)c2c1 [Compound 150]
Plant response rating, Ducksalad [1]: 0
Plant response rating, Barnyardgrass [2]: 0
Plant response rating, Rice (rice (Oryza sativa)): 0
Plant response rating, Sedge, Umbrella [3]: 0
Plant response rating, Galium [4, 12]: 30
Plant response rating, Galium [4, 13]: 80
Plant response rating, Blackgrass [5, 12]: 0
Plant response rating, Blackgrass [5, 13]: 50
Plant response rating, Pigweed [6, 14]: 40
Plant response rating, Pigweed [6, 15]: 80
Pigweed plant response rating [6, 16]: 80
Plant response rating, Pigweed [6, 17]: 100
Plant response rating, Wheat [7, 12]: 0
Plant response rating, Wheat [7, 13]: 20
Plant response rating, Ryegrass, Italian [8, 14]: 40
Plant response rating, Ryegrass, Italian [8, 15]: 90
Plant response rating, Ryegrass, Italian [8, 17]: 70
Plant response rating, Barnyardgrass [9, 14]: 0
Plant response rating, Barnyardgrass [9, 15]: 30
Barnyardgrass plant response rating [9, 16]: 0
Plant response rating, Barnyardgrass [9, 17]: 10
Plant response rating, Foxtail, Giant [10, 14]: 0
Plant response rating, Foxtail, Giant [10, 15]: 30
Foxtail, Giant plant response rating [10, 16]: 0
Plant response rating, Foxtail, Giant [10, 17]: 30
Plant response rating, Corn (corn (Zea mays); [12]): 0
Plant response rating, Corn (corn (Zea mays); [13]): 0
Plant response rating, Kochia (kochia (Kochia scoparia); [14]): 40
Plant response rating, Kochia (kochia (Kochia scoparia); [15]): 70
Kochia plant response rating (kochia (Kochia scoparia); [16]): 0
Plant response rating, Kochia (kochia (Kochia scoparia); [17]): 20
Plant response rating, Ragweed [11, 14]: 0
Plant response rating, Ragweed [11, 15]: 30
Plant response rating, Ragweed [11, 17]: 30

Cc1ccc2ccccc2c1-c1c(OS(C)(=O)=O)c(Br)nn(C)c1=O [Compound 155]
Plant response rating, Ducksalad [1]: 50
Plant response rating, Barnyardgrass [2]: 0
Plant response rating, Rice (rice (Oryza sativa)): 20
Plant response rating, Sedge, Umbrella [3]: 65
Plant response rating, Galium [4, 18]: 90
Plant response rating, Galium [4, 13]: 90
Plant response rating, Blackgrass [5, 18]: 60
Plant response rating, Blackgrass [5, 13]: 70
Plant response rating, Pigweed [6, 19]: 90
Plant response rating, Pigweed [6, 15]: 100
Plant response rating, Pigweed [6, 20]: 100
Plant response rating, Pigweed [6, 17]: 100
Plant response rating, Wheat [7, 18]: 30
Plant response rating, Wheat [7, 13]: 50
Plant response rating, Ryegrass, Italian [8, 19]: 90
Plant response rating, Ryegrass, Italian [8, 15]: 90
Plant response rating, Ryegrass, Italian [8, 20]: 70
Plant response rating, Ryegrass, Italian [8, 17]: 90
Plant response rating, Barnyardgrass [9, 19]: 30
Plant response rating, Barnyardgrass [9, 15]: 80
Plant response rating, Barnyardgrass [9, 20]: 50
Plant response rating, Barnyardgrass [9, 17]: 80
Plant response rating, Foxtail, Giant [10, 19]: 80
Plant response rating, Foxtail, Giant [10, 15]: 90
Plant response rating, Foxtail, Giant [10, 20]: 60
Plant response rating, Foxtail, Giant [10, 17]: 90
Plant response rating, Corn (corn (Zea mays); [18]): 0
Plant response rating, Corn (corn (Zea mays); [13]): 20
Plant response rating, Kochia (kochia (Kochia scoparia); [19]): 70
Plant response rating, Kochia (kochia (Kochia scoparia); [15]): 80
Plant response rating, Kochia (kochia (Kochia scoparia); [20]): 20
Plant response rating, Kochia (kochia (Kochia scoparia); [17]): 90
Plant response rating, Ragweed [11, 19]: 100
Plant response rating, Ragweed [11, 15]: 100
Plant response rating, Ragweed [11, 20]: 90
Plant response rating, Ragweed [11, 17]: 90
